Experimental data as given in the supplement of paper PMC10331698.
± gives the standard deviation of the averaged measurements.

What was measured:
Experiment in all cases: level (log10 ratio to DMSO vehicle control); higher = higher biomarker level / cell amount than vehicle control
Conditions in all cases: in DMSO
[1] = compound: C=C(C)C(=O)OCC(F)(F)C(F)(F)C(F)(F)C(F)(F)C(F)(F)C(F)(F)C(F)(F)F
Procedure: (§1)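 BioMAP Diversity Plus panel of 12 human primary cell co-culture systems (3C, 4H, LPS, SAg, BT, BF4T, BE3C, CASM3C, HDF3CGF, KF3CT, MyoF, Mphg). Compounds were added 1 h before stimulation and left for 24 h (MyoF 48 h; BT 72 h for soluble read-outs or 6 d for IgG). Biomarkers were read by ELISA, cytotoxicity by SRB, PBMC viability and proliferation by Alamar Blue. Each well value was divided by the mean of 8 DMSO control wells on the same plate and log10 transformed; duplicate blinded samples were tested at 4 concentrations.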

[2] = compound: C=CC(=O)OCCC(F)(F)C(F)(F)C(F)(F)C(F)(F)F [2-(Perfluorobutyl)ethyl acrylate]
Procedure: as §1

[3] = compound: FC(F)(F)C(F)(F)C(F)(F)C(F)(F)C(F)(F)C(F)(F)C(F)(F)CCI [1-Iodo-1H,1H,2H,2H-perfluorononane]
Procedure: as §1

Perfluorooctanamide = compound: NC(=O)C(F)(F)C(F)(F)C(F)(F)C(F)(F)C(F)(F)C(F)(F)C(F)(F)F [Perfluorooctanamide]
Procedure: as §1

Hexafluoroglutaric acid = compound: O=C(O)C(F)(F)C(F)(F)C(F)(F)C(=O)O [Hexafluoroglutaric acid]
Procedure: as §1

[4] = compound: O=S(=O)(O)C(F)(F)C(F)(F)C(F)(F)C(F)(F)F [Perfluorobutanesulfonic acid]
Procedure: as §1

1H,1H-Heptafluorobutanol = compound: OCC(F)(F)C(F)(F)C(F)(F)F [1H,1H-Heptafluorobutanol]
Procedure: as §1

Test System | level (log10) ([1]; 6700 nM) | level (log10) ([1]; 20000 nM) | level (log10) ([2]; 6700 nM) | level (log10) ([2]; 20000 nM) | level (log10) ([2]; 60000 nM) | level (log10) ([3]; 6700 nM) | level (log10) ([3]; 20000 nM) | level (log10) (Perfluorooctanamide; 6700 nM) | level (log10) (Perfluorooctanamide; 20000 nM) | level (log10) (Perfluorooctanamide; 60000 nM) | level (log10) (Hexafluoroglutaric acid; 6700 nM) | level (log10) (Hexafluoroglutaric acid; 20000 nM) | level (log10) (Hexafluoroglutaric acid; 60000 nM) | level (log10) ([4]; 6700 nM) | level (log10) ([4]; 20000 nM) | level (log10) ([4]; 60000 nM) | level (log10) (1H,1H-Heptafluorobutanol; 6700 nM) | level (log10) (1H,1H-Heptafluorobutanol; 20000 nM) | level (log10) (1H,1H-Heptafluorobutanol; 60000 nM)
3C:CD87/uPAR | -0.0235 ± 0.054 | -0.015 ± 0.048 | 0.0065 ± 0.00071 | 0.0145 ± 0.005 | 0.004 ± 0.017 | 0.0105 ± 0.019 | 0.0225 ± 0.016 | 0.0075 ± 0.011 | 0.004 ± 0.0099 | 0.0045 ± 0.0092 | -0.0075 ± 0.018 | -0.0105 ± 0.028 | 0.0025 ± 0.013 | -0.007 ± 0.027 | -0.0075 ± 0.00071 | -0.0235 ± 0.022 | -0.011 ± 0.025 | 0.0085 ± 0.023 | 0.026 ± 0.021
3C:CXCL8/IL-8 | -0.0085 ± 0.032 | 0.03 ± 0.014 | -0.0155 ± 0.015 | -0.02 ± 0.0085 | 0.003 ± 0.024 | 0.0085 ± 0.011 | 0.0165 ± 0.005 | -0.013 ± 0.0042 | 0.002 ± 0.031 | 0.047 ± 0.021 | -0.033 ± 0.0057 | -0.0185 ± 0.018 | 0.0015 ± 0.044 | 0.0045 ± 0.00071 | 0.008 ± 0.021 | 0.071 ± 0.04 | 0.0005 ± 0.067 | -0.0055 ± 0.079 | 0.0185 ± 0.093
3C:CXCL9/MIG | -0.001 ± 0.017 | 0.015 ± 0.0099 | 0.0135 ± 0.013 | -0.011 ± 0.0099 | -0.0025 ± 0.0035 | 0.002 ± 0.0042 | 0.007 ± 0.013 | 0.01 ± 0.0042 | 0.008 ± 0.014 | 0.031 ± 0.0014 | -0.014 ± 0.0085 | -0.005 ± 0.0042 | -0.0075 ± 0.0035 | 0.009 ± 0.016 | 0.009 ± 0.017 | 0.0175 ± 0.0021 | 0.001 ± 0.021 | 0.002 ± 0.014 | 0 ± 0.017
3C:HLA-DR | 0.0085 ± 0.011 | -0.0005 ± 0.019 | 0.035 ± 0.013 | 0.0285 ± 0.0035 | -0.046 ± 0.058 | -0.001 ± 0.017 | 0.0155 ± 0.025 | 0.001 ± 0.034 | 0.002 ± 0.017 | 0.0095 ± 0.019 | 0.0225 ± 0.035 | 0.0315 ± 0.047 | 0.038 ± 0.042 | -0.0015 ± 0.015 | -0.007 ± 0.0057 | -0.006 ± 0.013 | -0.0025 ± 0.0021 | 0.0035 ± 0.012 | 0.005 ± 0.014
3C:Proliferation | -0.0365 ± 0.039 | -0.0595 ± 0.037 | -0.0445 ± 0.049 | -0.088 ± 0.028 | -0.304 ± 0.07 | -0.019 ± 0.0085 | -0.027 ± 0.0057 | 0.0165 ± 0.0021 | 0 ± 0.014 | -0.081 ± 0.0085 | -0.0055 ± 0.0064 | -0.009 ± 0.068 | -0.0155 ± 0.054 | -0.002 ± 0.0014 | 0.017 ± 0.031 | -0.0525 ± 0.023 | 0.0075 ± 0.005 | 0.02 ± 0.025 | -0.0595 ± 0.005
3C:SRB | 0.0095 ± 0.015 | -0.0105 ± 0.022 | 0.0005 ± 0.021 | 0.0035 ± 0.0092 | -0.0345 ± 0.0078 | 0.0125 ± 0.015 | 0.0295 ± 0.03 | 0.007 ± 0.013 | 0.0095 ± 0.005 | -0.015 ± 0.0099 | -0.004 ± 0.0014 | -0.005 ± 0.014 | 0.0075 ± 0.028 | 0.004 ± 0.0099 | -0.0095 ± 0.0035 | -0.021 ± 0.0042 | -0.0095 ± 0.012 | 0.001 ± 0.0085 | -0.001 ± 0.0071
4H:CCL2/MCP-1 | -0.0415 ± 0.0092 | -0.005 ± 0.061 | -0.0405 ± 0.028 | -0.043 ± 0.037 | 0.009 ± 0.11 | -0.0175 ± 0.019 | 0.0395 ± 0.1 | -0.016 ± 0.0028 | -0.005 ± 0.0014 | -0.008 | -0.0095 ± 0.032 | -0.0135 ± 0.011 | 0.0245 ± 0.047 | -0.021 ± 0.0042 | -0.0095 ± 0.023 | -0.017 ± 0.018 | 0.0015 ± 0.0035 | -0.0025 ± 0.00071 | 0.0125 ± 0.026
